Results as given in PubChem BioAssay (NCI).
Several values for one entry are separate records, joined by “and”; a condition that tells them apart may be missing. Identical values can stand only once.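 Compound exposure: 48 hours, 5 concentrations, 96-well plates. GI50 marks 50% less growth. TGI: total growth inhibition.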

Key:
Experiment in all cases: NCI anticancer screen, dose series, 48 h
[1] = test system: 786-0 renal
[2] = test system: A498 renal
[3] = test system: A549 NSCLC
[4] = test system: ACHN renal
[5] = test system: CAKI-1 renal
[6] = test system: CCRF-CEM leukemia
[7] = test system: COLO 205 colon
[8] = test system: DLD-1 colon
[9] = test system: DMS 114 small cell lung
[10] = test system: DMS 273 small cell lung
[11] = test system: EKVX NSCLC
[12] = test system: HCC-2998 colon
[13] = test system: HCT-116 colon
[14] = test system: HCT-15 colon
[15] = test system: HL-60(TB) leukemia
[16] = test system: HOP-18 NSCLC
[17] = test system: HOP-62 NSCLC
[18] = test system: HOP-92 NSCLC
[19] = test system: HT29 colon
[20] = test system: IGROV1 ovarian
[21] = test system: K-562 leukemia
[22] = test system: KM12 colon
[23] = test system: KM20L2 colon
[24] = test system: LOX IMVI melanoma
[25] = test system: LXFL 529 NSCLC
[26] = test system: M14 melanoma
[27] = test system: M19-MEL melanoma
[28] = test system: MALME-3M melanoma
[29] = test system: MOLT-4 leukemia
[30] = test system: NCI-H226 lung
[31] = test system: NCI-H23 lung
[32] = test system: NCI-H460 lung
[33] = test system: NCI-H522 lung
[34] = test system: OVCAR-3 ovarian
[35] = test system: OVCAR-4 ovarian
[36] = test system: OVCAR-5 ovarian
[37] = test system: OVCAR-8 ovarian
[38] = test system: RPMI-8226 leukemia
[39] = test system: RXF-631 renal
[40] = test system: SF-268 CNS
[41] = test system: SF-295 CNS
[42] = test system: SK-MEL-2 melanoma
[43] = test system: SK-MEL-28 melanoma
[44] = test system: SK-MEL-5 melanoma
[45] = test system: SK-OV-3 ovarian
[46] = test system: SN12C renal
[47] = test system: SNB-19 CNS
[48] = test system: SNB-75 CNS
[49] = test system: SNB-78 CNS
[50] = test system: SW-620 colon
[51] = test system: TK-10 renal
[52] = test system: U251 CNS
[53] = test system: UACC-257 melanoma
[54] = test system: UACC-62 melanoma
[55] = test system: UO-31 renal
[56] = test system: BT-549 breast
[57] = test system: DU-145 prostate
[58] = test system: HS 578T breast
[59] = test system: MCF7 breast
[60] = test system: MDA-MB-231 breast
[61] = test system: MDA-MB-435
[62] = test system: MDA-N
[63] = test system: NCI/ADR-RES ovarian
[64] = test system: PC-3 prostate
[65] = test system: RXF 393 renal
[66] = test system: SF-539 CNS
[67] = test system: SR leukemia
[68] = test system: T-47D breast
[69] = test system: XF 498 CNS

Cc1ccc(S(=O)(=O)N=NC=C2c3ccccc3N(O)c3ccccc32)cc1
TGI [1]: 7360 nM
TGI [2]: 13900 nM
TGI [3]: 20000 nM
TGI [4]: 9430 nM
TGI [5]: 23800 nM
TGI [6]: 2930 nM
TGI [7]: 7990 nM
TGI [8]: 8460 nM
TGI [9]: 10800 nM
TGI [10]: 15100 nM
TGI [11]: 40000 nM
TGI [12]: 21600 nM
TGI [13]: 1940 nM
TGI [14]: 3630 nM
TGI [15]: 4620 nM
TGI [16]: 20800 nM
TGI [17]: 18800 nM
TGI [18]: 19500 nM
TGI [19]: 13200 nM
TGI [20]: 27100 nM
TGI [21]: 13000 nM
TGI [22]: 26600 nM
TGI [23]: 12400 nM
TGI [24]: 2760 nM
TGI [25]: 2410 nM
TGI [26]: 23200 nM
TGI [27]: 23400 nM
TGI [28]: 25500 nM
TGI [29]: 4110 nM
TGI [30]: 29000 nM
TGI [31]: 19300 nM
TGI [32]: 5990 nM
TGI [33]: 3860 nM
TGI [34]: 30000 nM
TGI [35]: 22800 nM
TGI [36]: 27800 nM
TGI [37]: 14700 nM
TGI [38]: 3680 nM
TGI [39]: 10200 nM
TGI [40]: 19500 nM
TGI [41]: 21600 nM
TGI [42]: 17800 nM
TGI [43]: 14500 nM
TGI [44]: 18800 nM
TGI [45]: 27900 nM
TGI [46]: 16600 nM
TGI [47]: 24200 nM
TGI [48]: 10400 nM
TGI [49]: 32800 nM
TGI [50]: 14700 nM
TGI [51]: 16500 nM
TGI [52]: 13100 nM
TGI [53]: 23700 nM
TGI [54]: 18800 nM
TGI [55]: 27100 nM

CC1=C2C(=CC(C)(C)[C@@H]2O)C(=O)[C@](C)(O)C12CC2
TGI [1]: 53.2 nM and 67 nM
GI50 [2]: 18.3 nM and 10.8 nM
TGI [2]: 49.9 nM and 55.3 nM
TGI [3]: 191 nM and 1120 nM
GI50 [4]: 7.96 nM
TGI [4]: 62.5 nM and 114 nM
GI50 [56]: 30.5 nM
TGI [56]: 107 nM and 78.8 nM
GI50 [5]: 12.9 nM and 43.6 nM
TGI [5]: 69.7 nM and 594 nM
GI50 [7]: 20.9 nM
TGI [7]: 98.9 nM and 97.7 nM
TGI [8]: 82.5 nM
TGI [9]: 101 nM
TGI [10]: 18.9 nM
GI50 [57]: 5.45 nM
TGI [57]: 26.2 nM
GI50 [11]: 40.9 nM
TGI [11]: 170 nM and 221 nM
GI50 [12]: 23.7 nM
TGI [12]: 79 nM and 42.3 nM
TGI [13]: 186 nM and 193 nM
GI50 [14]: 5.14 nM
GI50 [15]: 9.01 nM and 19.4 nM
TGI [15]: 49.5 nM and 83.2 nM
TGI [16]: 86.5 nM
GI50 [17]: 23.3 nM
TGI [17]: 100 nM and 87.2 nM
GI50 [18]: 26.8 nM
TGI [18]: 88.7 nM and 71.2 nM
GI50 [58]: 27.6 nM
TGI [58]: 85.5 nM and 39.5 nM
GI50 [19]: 6.23 nM
TGI [19]: 208 nM and 71.3 nM
GI50 [20]: 23.1 nM
TGI [20]: 105 nM and 69.8 nM
GI50 [21]: 14.5 nM
TGI [21]: 369 nM and 596 nM
GI50 [22]: 20.5 nM
TGI [22]: 123 nM and 411 nM
TGI [23]: 74.4 nM
GI50 [24]: 12.5 nM
TGI [24]: 52.9 nM and 38.4 nM
TGI [25]: 92.7 nM
TGI [26]: 53.7 nM and 43.1 nM
TGI [27]: 163 nM
GI50 [28]: 48.6 nM
TGI [28]: 112 nM and 54 nM
GI50 [59]: 4.72 nM
TGI [59]: 46.9 nM and 123 nM
GI50 [60]: 51.3 nM
GI50 [61]: 25 nM and 14.7 nM
TGI [61]: 70.6 nM and 31.9 nM
GI50 [62]: 12.6 nM
TGI [62]: 42.4 nM and 27.8 nM
GI50 [29]: 13.7 nM
TGI [29]: 134 nM and < 20.8 nM
GI50 [30]: 70.9 nM
TGI [30]: 232 nM and 171 nM
GI50 [31]: 15.7 nM
TGI [31]: 60.7 nM and 26.6 nM
GI50 [32]: 5.75 nM
TGI [32]: 43.7 nM and < 31.1 nM
GI50 [33]: 13.7 nM
TGI [33]: 48.4 nM and < 23.2 nM
GI50 [63]: 22.3 nM
TGI [63]: 104 nM and 15.5 nM
GI50 [34]: 8.35 nM
TGI [34]: 32.7 nM and 42.2 nM
GI50 [35]: 14.7 nM
TGI [35]: 201 nM and 45.8 nM
TGI [36]: 95.4 nM and 37.4 nM
GI50 [37]: 29.4 nM
TGI [37]: 182 nM and 1290 nM
TGI [64]: 164 nM and 19.4 nM
TGI [65]: 19.9 nM
GI50 [40]: 9.73 nM
TGI [40]: 72.7 nM and 65.9 nM
GI50 [41]: 26 nM
TGI [41]: 110 nM and 50.3 nM
TGI [66]: 54.8 nM and 38 nM
GI50 [42]: 19.6 nM
TGI [42]: 52.5 nM and 22.3 nM
TGI [43]: 75.6 nM and 89.1 nM
GI50 [44]: 15.9 nM
TGI [44]: 35.8 nM and 26.9 nM
GI50 [45]: 29.4 nM
TGI [45]: 213 nM and 67.6 nM
GI50 [46]: 38.7 nM
TGI [46]: 216 nM and 184 nM
GI50 [47]: 52.3 nM
TGI [47]: 371 nM and 279 nM
GI50 [48]: 31.5 nM and < 14.2 nM
TGI [48]: 72.3 nM and 27.2 nM
GI50 [67]: 3.51 nM
TGI [67]: 74.4 nM and 268 nM
GI50 [50]: 5.97 nM and 16.8 nM
TGI [50]: 97.6 nM and 131 nM
GI50 [68]: 48.9 nM
TGI [68]: 359 nM and 97.4 nM
GI50 [51]: 51.1 nM
TGI [51]: 222 nM and 236 nM
GI50 [52]: 16.9 nM
TGI [53]: 328 nM and 259 nM
TGI [54]: 62.3 nM and 67.8 nM
GI50 [55]: 17.4 nM
TGI [55]: 65.5 nM and 76.8 nM
TGI [69]: 32.6 nM
